# According to patent publication US20070048247A1, “Deodorizing tablets” (Kimberly-Clark Worldwide, Inc., priority 2005, published 2007):
# Tests used:
# [1] = Example 4 urine odor panel ranking; set-up: species or system Human; details: for Average Rankings, Avg. Score / Urine Odor Ranking 2 (number of panelists) / Urine Odor Ranking 4 (number of panelists) / Urine Odor Ranking 6 (number of panelists) / Urine Odor Ranking 7 (number of panelists) / Urine Odor Ranking 3 (number of panelists) / Urine Odor Ranking 5 (number of panelists) / Urine Odor Ranking 1 (number of panelists): 8 millimolar in urine, scale 1 to 7, 7 most malodorous
# Description: Powders of the aforementioned quinone compounds (commercially available from Sigma-Aldrich Chemical Co., Inc. of St. Louis, Missouri and Noveon Hilton Davis, Inc. of Cincinnati, Ohio) were weighed and placed into the mason jars containing 50 milliliters of urine so that the final concentration of the powder was 8 millimolar (equivalent to 0.5 wt. %).
# To aid in the assessment of the quinone compounds, panelists were asked to rank the mason jars from least to most malodorous (on a scale from 1 to 7, with 7 being the most malodors). The results are set forth below in Tables 12 and 13.
# [2] = Example 5 urine odor panel ranking; set-up: species or system Human; details: for Average Rankings (Group B), Avg. Score / Urine Odor Ranking 2 (number of panelists) / Urine Odor Ranking 4 (number of panelists) / Urine Odor Ranking 7 (number of panelists) / Average Rankings (Group A), Avg. Score / Urine Odor Ranking 5 (number of panelists) / Urine Odor Ranking 6 (number of panelists) / Urine Odor Ranking 8 (number of panelists) / Urine Odor Ranking 1 (number of panelists): 8 mM in urine, 1 least, 8 most urine malodor
# Procedure: Assessments were conducted the following day by asking panelists to rate each jar from 1 (least urine malodor) to 8 (most urine malodor). The results are set forth below in Tables 15-18.
# [3] = Example 7 urine odor panel ranking (16 millimolar); set-up: species or system Human; details: 16 millimolar in urine, 1 least, 10 most urine malodor
# Procedure: The effectiveness of various quinone compounds in reducing urine odor was compared. […] Human female urine was initially collected and pooled at Kimberly-Clark Corporation. The pooled urine was added to mason jars in 50-milliliter aliquots using an automated pipette aid. Powders of the aforementioned quinone compounds (commercially available from Sigma-Aldrich Chemical Co., Inc. of St. Louis, Missouri and Noveon Hilton Davis, Inc. of Cincinnati, Ohio) were weighed and placed into the mason jars containing 50 milliliters of urine so that the final concentration of the powder was 16 millimolar (equivalent to 1 wt. %). The mason jars were placed in an incubator overnight at 37° C. The experimental setup is set forth in more detail below in Table 21.
# Jars were wrapped in foil and placed in an incubator at 37° C. overnight. The jars were divided into four groups (C-F), each sharing the same control jar of urine alone (no powder). Assessments were conducted the following day by asking panelists to rate each jar from 1 (least urine malodor) to 10 (most urine malodor).
# [4] = Solubility of powder in urine
# [5] = Example 6 urine odor panel ranking; set-up: species or system Human; details: as Example 5, 1 least, 8 most urine malodor
# Description: The quinone compounds chosen for this example were Alizarin Blue Black B, Remazol Brilliant Blue R and Acid Green 25. The results are set forth below in Tables 19 and 20.
# [6] = Example 5, 8 mM in 50 milliliters of urine
# [7] = Example 7, 16 mM in 50 milliliters of urine
molecule,measurement,setting,value
"O=C1c2ccccc2C(=O)c2c(O)ccc(O)c21 [1,4-Dihydroxyanthraquinone, 1,4-dihydroxyanthraquinone]","Average Rankings, Avg. Score",[1],4.75
same,Urine Odor Ranking 2 (number of panelists),[1],1
same,Urine Odor Ranking 4 (number of panelists),[1],1
same,Urine Odor Ranking 6 (number of panelists),[1],1
same,Urine Odor Ranking 7 (number of panelists),[1],1
"Nc1ccc(O)c2c1C(=O)c1ccccc1C2=O [1-Amino-4-Hydroxyanthraquinone, 1-amino-4-hydroxyanthraquinone]","Average Rankings, Avg. Score",[1],5
same,Urine Odor Ranking 3 (number of panelists),[1],1
same,Urine Odor Ranking 5 (number of panelists),[1],2
same,Urine Odor Ranking 7 (number of panelists),[1],1
CC(=O)Nc1ccc(Nc2cc(S(=O)(=O)[O-])c(N)c3c2C(=O)c2ccccc2C3=O)cc1.[Na+] [Acid Blue 40],odor reduction performance (in words),[2]; Example 5 Group B,performed well
same,"Average Rankings (Group B), Avg. Score",[2]; Example 5 Group B,4.25
same,Urine Odor Ranking 2 (number of panelists),[2]; Example 5 Group B,1
same,Urine Odor Ranking 4 (number of panelists),[2]; Example 5 Group B,2
same,Urine Odor Ranking 7 (number of panelists),[2]; Example 5 Group B,1
same,"Average Rankings (Group F), Avg. Score",[3]; Example 7 Group F,3.8
same,Urine Odor Ranking 1 (number of panelists),[3]; Example 7 Group F,1
same,Urine Odor Ranking 2 (number of panelists),[3]; Example 7 Group F,1
same,Urine Odor Ranking 3 (number of panelists),[3]; Example 7 Group F,1
same,Urine Odor Ranking 4 (number of panelists),[3]; Example 7 Group F,1
same,Urine Odor Ranking 9 (number of panelists),[3]; Example 7 Group F,1
same,Soluble?,[4]; [6],Yes
same,Soluble?,[4]; [7],Somewhat
CC(=O)N(C)c1ccc(Nc2cc(S(=O)(=O)[O-])c(N)c3c2C(=O)c2ccccc2C3=O)cc1.[Na+] [Acid Blue 41],"Average Rankings (Group A), Avg. Score",[2]; Example 5 Group A,5
same,Urine Odor Ranking 4 (number of panelists),[2]; Example 5 Group A,1
same,Urine Odor Ranking 5 (number of panelists),[2]; Example 5 Group A,2
same,Urine Odor Ranking 6 (number of panelists),[2]; Example 5 Group A,1
same,"Average Rankings (Group C), Avg. Score",[3]; Example 7 Group C,3.4
same,Urine Odor Ranking 2 (number of panelists),[3]; Example 7 Group C,2
same,Urine Odor Ranking 3 (number of panelists),[3]; Example 7 Group C,2
same,Urine Odor Ranking 7 (number of panelists),[3]; Example 7 Group C,1
same,Soluble?,[4]; [6],Yes
same,Soluble?,[4]; [7],Yes
Cc1cc(C)c(S(=O)(=O)[O-])c(C)c1Nc1ccc(Nc2c(C)cc(C)c(S(=O)(=O)[O-])c2C)c2c1C(=O)c1ccccc1C2=O.[Na+].[Na+] [Acid Blue 80],"Average Rankings (Group B), Avg. Score",[2]; Example 5 Group B,6.25
same,Urine Odor Ranking 4 (number of panelists),[2]; Example 5 Group B,1
same,Urine Odor Ranking 5 (number of panelists),[2]; Example 5 Group B,1
same,Urine Odor Ranking 8 (number of panelists),[2]; Example 5 Group B,2
same,"Average Rankings (Group F), Avg. Score",[3]; Example 7 Group F,5.4
same,Urine Odor Ranking 1 (number of panelists),[3]; Example 7 Group F,1
same,Urine Odor Ranking 5 (number of panelists),[3]; Example 7 Group F,1
same,Urine Odor Ranking 6 (number of panelists),[3]; Example 7 Group F,1
same,Urine Odor Ranking 7 (number of panelists),[3]; Example 7 Group F,1
same,Urine Odor Ranking 8 (number of panelists),[3]; Example 7 Group F,1
same,Soluble?,[4]; [6],Yes
same,Soluble?,[4]; [7],Mostly
Cc1ccc(Nc2ccc(O)c3c2C(=O)c2ccccc2C3=O)c(S(=O)(=O)[O-])c1.[Na+] [Acid Violet 43],"Average Rankings (Group A), Avg. Score",[2]; Example 5 Group A,4.75
same,Urine Odor Ranking 2 (number of panelists),[2]; Example 5 Group A,2
same,Urine Odor Ranking 7 (number of panelists),[2]; Example 5 Group A,1
same,Urine Odor Ranking 8 (number of panelists),[2]; Example 5 Group A,1
same,"Average Rankings (Group D), Avg. Score",[3]; Example 7 Group D,4.2
same,Urine Odor Ranking 1 (number of panelists),[3]; Example 7 Group D,1
same,Urine Odor Ranking 3 (number of panelists),[3]; Example 7 Group D,1
same,Urine Odor Ranking 4 (number of panelists),[3]; Example 7 Group D,1
same,Urine Odor Ranking 5 (number of panelists),[3]; Example 7 Group D,1
same,Urine Odor Ranking 8 (number of panelists),[3]; Example 7 Group D,1
same,Soluble?,[4]; [6],Yes
same,Soluble?,[4]; [7],No
"O=C1c2ccccc2C(=O)c2c(Nc3cccc(S(=O)(=O)[O-])c3)c(Nc3ccc(S(=O)(=O)[O-])cc3)cc(O)c21.[Na+].[Na+] [Alizarin Blue Black B, Mordant Black 13 (Alizarin Blue Black B)]",odor reduction performance (in words),[2]; Example 5 Group A,performed best
same,"Average Rankings (Group A), Avg. Score",[2]; Example 5 Group A,1
same,Urine Odor Ranking 1 (number of panelists),[2]; Example 5 Group A,4
same,"Average Rankings, Avg. Score",[5],2.75
same,Urine Odor Ranking 1 (number of panelists),[5],1
same,Urine Odor Ranking 3 (number of panelists),[5],2
same,Urine Odor Ranking 4 (number of panelists),[5],1
same,"Average Rankings (Group C), Avg. Score",[3]; Example 7 Group C,3
same,Urine Odor Ranking 1 (number of panelists),[3]; Example 7 Group C,1
same,Urine Odor Ranking 3 (number of panelists),[3]; Example 7 Group C,2
same,Urine Odor Ranking 4 (number of panelists),[3]; Example 7 Group C,2
same,Soluble?,[4]; [6],Yes
same,Soluble?,[4]; [7],Yes
"Cc1c(C(=O)O)c(O)cc2c1C(=O)c1c(O)c([C@@H]3O[C@H](CO)[C@@H](O)[C@H](O)[C@H]3O)c(O)c(O)c1C2=O [Carminic Acid, Natural Red 4 (Carminic Acid)]","Average Rankings (Group E), Avg. Score",[3]; Example 7 Group E,3.6
same,Urine Odor Ranking 1 (number of panelists),[3]; Example 7 Group E,2
same,Urine Odor Ranking 3 (number of panelists),[3]; Example 7 Group E,1
same,Urine Odor Ranking 4 (number of panelists),[3]; Example 7 Group E,1
same,Urine Odor Ranking 9 (number of panelists),[3]; Example 7 Group E,1
Cc1cc(O)c2c(c1)C(=O)c1cc(O)cc(O)c1C2=O [Emodin],"Average Rankings (Group C), Avg. Score",[3]; Example 7 Group C,7.8
same,Urine Odor Ranking 5 (number of panelists),[3]; Example 7 Group C,1
same,Urine Odor Ranking 8 (number of panelists),[3]; Example 7 Group C,2
same,Urine Odor Ranking 9 (number of panelists),[3]; Example 7 Group C,2
same,Soluble?,[4]; [7],No
"Nc1c(S(=O)(=O)O)cc(Nc2ccc(Nc3nc(Cl)nc(Nc4cccc(S(=O)(=O)O)c4)n3)c(S(=O)(=O)O)c2)c2c1C(=O)c1ccccc1C2=O [Procion Blue HB, Reactive Blue 2 (Procion Blue HB)]","Average Rankings, Avg. Score",[1],3.5
same,Urine Odor Ranking 1 (number of panelists),[1],2
same,Urine Odor Ranking 2 (number of panelists),[1],1
same,Urine Odor Ranking 4 (number of panelists),[1],1
same,Urine Odor Ranking 7 (number of panelists),[1],1
same,"Average Rankings (Group A), Avg. Score",[2]; Example 5 Group A,6.5
same,Urine Odor Ranking 5 (number of panelists),[2]; Example 5 Group A,1
same,Urine Odor Ranking 6 (number of panelists),[2]; Example 5 Group A,1
same,Urine Odor Ranking 7 (number of panelists),[2]; Example 5 Group A,1
same,Urine Odor Ranking 8 (number of panelists),[2]; Example 5 Group A,1
same,"Average Rankings (Group F), Avg. Score",[3]; Example 7 Group F,5.2
same,Urine Odor Ranking 1 (number of panelists),[3]; Example 7 Group F,1
same,Urine Odor Ranking 4 (number of panelists),[3]; Example 7 Group F,1
same,Urine Odor Ranking 5 (number of panelists),[3]; Example 7 Group F,1
same,Urine Odor Ranking 6 (number of panelists),[3]; Example 7 Group F,1
same,Urine Odor Ranking 9 (number of panelists),[3]; Example 7 Group F,1
same,Urine Odor Ranking 10 (number of panelists),[3]; Example 7 Group F,1
same,Soluble?,"[4]; Example 4, 8 millimolar in 50 milliliters of urine",Yes
same,Soluble?,[4]; [6],Yes
same,Soluble?,[4]; [7],Yes
"Nc1c(S(=O)(=O)[O-])cc(Nc2cccc(S(=O)(=O)CCOS(=O)(=O)[O-])c2)c2c1C(=O)c1ccccc1C2=O.[Na+].[Na+] [Remazol Brilliant Blue R, Reactive Blue 19 (Remazol Brilliant Blue R)]",reducing urine odor (in words),[1],most effective in reducing urine odor
same,"Average Rankings, Avg. Score",[1],1.5
same,Urine Odor Ranking 1 (number of panelists),[1],2
same,Urine Odor Ranking 2 (number of panelists),[1],2
same,odor reduction performance (in words),[2]; Example 5 Group B,performed well
same,"Average Rankings (Group B), Avg. Score",[2]; Example 5 Group B,3
same,Urine Odor Ranking 1 (number of panelists),[2]; Example 5 Group B,2
same,Urine Odor Ranking 4 (number of panelists),[2]; Example 5 Group B,1
same,Urine Odor Ranking 6 (number of panelists),[2]; Example 5 Group B,1
same,"Average Rankings, Avg. Score",[5],4.75
same,Urine Odor Ranking 2 (number of panelists),[5],1
same,Urine Odor Ranking 3 (number of panelists),[5],1
same,Urine Odor Ranking 7 (number of panelists),[5],2
same,"Average Rankings (Group E), Avg. Score",[3]; Example 7 Group E,3.4
same,Urine Odor Ranking 1 (number of panelists),[3]; Example 7 Group E,1
same,Urine Odor Ranking 2 (number of panelists),[3]; Example 7 Group E,2
same,Urine Odor Ranking 3 (number of panelists),[3]; Example 7 Group E,1
same,Urine Odor Ranking 9 (number of panelists),[3]; Example 7 Group E,1
CCNc1ccc(NCC)c2c1C(=O)c1ccccc1C2=O [Solvent Blue 59],"Average Rankings, Avg. Score",[1],5.25
same,Urine Odor Ranking 3 (number of panelists),[1],1
same,Urine Odor Ranking 5 (number of panelists),[1],1
same,Urine Odor Ranking 6 (number of panelists),[1],1
same,Urine Odor Ranking 7 (number of panelists),[1],1
Cc1ccc(Nc2ccc(Nc3ccc(C)cc3)c3c2C(=O)c2ccccc2C3=O)cc1 [Solvent Green 3],"Average Rankings, Avg. Score",[1],3.75
same,Urine Odor Ranking 2 (number of panelists),[1],1
same,Urine Odor Ranking 3 (number of panelists),[1],1
same,Urine Odor Ranking 4 (number of panelists),[1],1
same,Urine Odor Ranking 6 (number of panelists),[1],1
Acid Black 48,"Average Rankings (Group C), Avg. Score",[3]; Example 7 Group C,7.2
same,Urine Odor Ranking 2 (number of panelists),[3]; Example 7 Group C,1
same,Urine Odor Ranking 6 (number of panelists),[3]; Example 7 Group C,1
same,Urine Odor Ranking 8 (number of panelists),[3]; Example 7 Group C,1
same,Urine Odor Ranking 10 (number of panelists),[3]; Example 7 Group C,2
same,Soluble?,[4]; [7],Somewhat
